From the supplement of paper PMC13380429

Legend:
[1] = system: A549-ACE2 infected with SARS-CoV-2; experiment: cell count relative to DMSO; higher = less toxic; details: 24 h
[2] = system: Caco-2; experiment: cell viability relative to DMSO; higher = less toxic; details: 72 h
[3] = system: Calu-3; experiment: as above; details: 72 h
[4] = system: HepG2; experiment: as above; details: 72 h
[5] = system: U2OS; experiment: as above; details: 72 h
[6] = system: Vero E6; experiment: as above; details: 72 h
[7] = system: A549-ACE2 infected with SARS-CoV-2; experiment: SARS-CoV-2 infection rate relative to DMSO; higher = more infection; details: 24 h
[8] = system: A549-ACE2 infected with SARS-CoV-2; experiment: morphology score (similarity to uninfected cells); higher = more like uninfected cells; details: 24 h
[9] = system: Calu-3; experiment: relative viability EC50 (midpoint between 100% and the lowest measured viability); higher = less toxic; details: 72 h
[10] = system: U2OS; experiment: as above; details: 72 h
[11] = system: Vero E6; experiment: as above; details: 72 h
[12] = system: Caco-2; experiment: drug sensitivity score (DSS) for viability; higher = more toxic; extreme values may be limits of the assay; details: 72 h
[13] = system: Calu-3; experiment: as above; details: 72 h
[14] = system: HepG2; experiment: as above; details: 72 h
[15] = system: U2OS; experiment: as above; details: 72 h
[16] = system: Vero E6; experiment: as above; details: 72 h
[17] = system: A549-ACE2; experiment: drug-induced phospholipidosis relative to tamoxifen; higher = more phospholipidosis
[18] = system: Caco-2; experiment: relative viability EC50 (midpoint between 100% and the lowest measured viability); higher = less toxic; details: 72 h
[19] = system: HepG2; experiment: as above; details: 72 h

CCN(CC)Cc1cc(Nc2ccnc3cc(Cl)ccc23)ccc1O [amodiaquine]
Details	SARS-CoV-2 infection rate, [7] [%]	cell count, [1] [%]	cell viability, [2] [%]	cell viability, [3] [%]	cell viability, [4] [%]	cell viability, [5] [%]	cell viability, [6] [%]	morphology score, [8]
1 nM	–	–	99.3	114	103	98.5	101	–
10 nM	–	–	92.1	110	79	101	99.3	–
100 nM	–	–	90.2	106	85.7	103	101	–
0.3 µM	87	109	–	–	–	–	–	0.38
1000 nM	–	–	96.7	91.5	85.7	98.1	95.3	–
3 µM	24	121	–	–	–	–	–	0.87
10 µM	12	133	–	–	–	–	–	0.76
10000 nM	–	–	58.5	81.8	57.7	93.9	84.9	–
30 µM	14	121	–	–	–	–	–	0.1

Details	drug sensitivity score	relative viability EC50 [µM]
[9]	–	> 10
[10]	–	> 10
[11]	–	> 10
[12]	2.6	–
[13]	1.3	–
[14]	5.5	–
[15]	0	–
[16]	0.6	–

Clc1ccc(N/N=C(\c2ccccc2)c2ccccn2)nc1 [JIB04]
Details	SARS-CoV-2 infection rate, [7] [%]	cell count, [1] [%]	cell viability, [2] [%]	cell viability, [3] [%]	cell viability, [4] [%]	cell viability, [5] [%]	cell viability, [6] [%]	morphology score, [8]
1 nM	–	–	89.4	101	92.7	102	91.7	–
10 nM	–	–	94.1	108	87.8	97.9	102	–
100 nM	–	–	33.7	102	19.8	95.6	89.4	–
0.3 µM	104	99	–	–	–	–	–	-0.14
1000 nM	–	–	11.2	14.7	6.2	34.3	53.7	–
3 µM	82	96	–	–	–	–	–	0.28
10 µM	36	88	–	–	–	–	–	0.37
10000 nM	–	–	34.7	18.8	21.6	6.9	6.4	–
30 µM	50	54	–	–	–	–	–	0.36

[17]
Details	drug-induced phospholipidosis [%]
0.3 µM, 24 h	4.18
0.3 µM, 48 h	6.34
0.3 µM, 72 h	8.31
0.833333 µM, 24 h	-0.88
3.33333 µM, 24 h	-2.31
6.66667 µM, 24 h	22.5
10 µM, 24 h	26.1
30 µM, 24 h	2.4

Details	drug sensitivity score	relative viability EC50 [µM]
[9]	–	0.327
[10]	–	0.595
[11]	–	0.943
[12]	24.6	–
[13]	15.3	–
[14]	28.1	–
[15]	13.2	–
[16]	10.7	–
[18]	–	0.0502
[19]	–	0.0327

O=C(Nc1ccc(-c2ccncc2)cc1)N[C@H](CO)c1ccccc1
Details	SARS-CoV-2 infection rate, [7] [%]	cell count, [1] [%]	cell viability, [2] [%]	cell viability, [4] [%]	cell viability, [5] [%]	cell viability, [6] [%]	morphology score, [8]
1 nM	–	–	99.4	96.7	98.6	97	–
10 nM	–	–	98.6	94.7	96.3	98.2	–
0.1 µM	98	105	–	–	–	–	0.27
100 nM	–	–	96.1	105	99.2	98	–
0.3 µM	101	112	–	–	–	–	0.23
1 µM	94	106	–	–	–	–	0.26
1000 nM	–	–	95.3	102	97.5	94.2	–
3 µM	110	91	–	–	–	–	-0.17
10000 nM	–	–	96.4	84.8	94.7	77	–

drug-induced phospholipidosis [%], [17]
Details	0.3 µM	0.833333 µM	3.33333 µM	6.66667 µM	10 µM	30 µM
24 h	3.51	2.55	2.66	3.66	1.91	3.72
48 h	2.8	0.36	-0.35	3.11	1.09	6.28
72 h	2.59	-2.02	-0.767	-0.334	-0.186	6.14

Details	drug sensitivity score	relative viability EC50 [µM]
[10]	–	> 10
[11]	–	> 10
[12]	0	–
[14]	0.2	–
[15]	0	–
[16]	1.6	–
[18]	–	> 10
[19]	–	> 10

Cc1c(-c2ccc(O)cc2)n(Cc2ccc(OCCN3CCCCCC3)cc2)c2ccc(O)cc12 [bazedoxifene]
Details	SARS-CoV-2 infection rate, [7] [%]	cell count, [1] [%]	cell viability, [2] [%]	cell viability, [3] [%]	cell viability, [4] [%]	cell viability, [5] [%]	cell viability, [6] [%]	morphology score, [8]
1 nM	–	–	104	96.3	95.2	104	102	–
10 nM	–	–	95.3	91.5	106	101	105	–
0.1 µM	97	99	–	–	–	–	–	0.02
100 nM	–	–	95.4	105	95.3	104	98.3	–
0.3 µM	103	105	–	–	–	–	–	0.05
1 µM	85	103	–	–	–	–	–	0.36
1000 nM	–	–	91.5	97.6	98.1	99.2	100	–
3 µM	22	122	–	–	–	–	–	0.83
10000 nM	–	–	60.4	11.6	12.3	53	18.1	–

drug-induced phospholipidosis [%], [17]
Details	0.3 µM	0.833333 µM	3.33333 µM	6.66667 µM	10 µM
24 h	0.63	6.49	23.7	37.6	4.23
48 h	0.36	3.68	24.9	44.4	36.7
72 h	0.978	3.09	19.4	39.6	52.6

Details	drug sensitivity score	relative viability EC50 [µM]
[9]	–	2.97
[11]	–	3.18
[12]	3.3	–
[13]	5.2	–
[14]	5.1	–
[15]	2.5	–
[16]	4.5	–
[19]	–	3.01

COc1cccc([C@H](O)C2CCN(CCc3ccc(F)cc3)CC2)c1OC [volinanserin]
cell viability [%]
Details	[2]	[3]	[4]	[5]	[6]
1 nM	101	90.9	99.9	103	102
10 nM	97.3	104	99.9	96.2	99.9
100 nM	101	99.9	95.8	99.7	98.9
1000 nM	90.8	101	101	98.6	101
10000 nM	88.9	95.1	91.3	98.5	96.1

Details	drug sensitivity score	relative viability EC50 [µM]
[9]	–	> 10
[10]	–	> 10
[11]	–	> 10
[12]	0.2	–
[13]	0	–
[14]	0	–
[15]	0	–
[16]	0	–
[18]	–	> 10
[19]	–	> 10

CC(=O)OCC1=C(C(=O)O)N2C(=O)[C@@H](N)[C@H]2SC1 [7-aminocephalosporanic-acid]
cell viability [%]
Details	[2]	[3]	[4]	[5]	[6]
1 nM	101	116	105	101	97.5
10 nM	106	102	117	99	100
100 nM	102	97.5	109	100	96.4
1000 nM	98.7	99.5	115	97.8	95.5
10000 nM	100	115	99.7	101	98.8

Details	drug sensitivity score	relative viability EC50 [µM]
[9]	–	> 10
[10]	–	> 10
[11]	–	> 10
[12]	0	–
[13]	0	–
[14]	0	–
[15]	0	–
[16]	0	–
[18]	–	> 10
[19]	–	> 10

C[C@@H](Oc1ccc(Cl)cc1)c1ccnc2ncnn12
cell viability [%]
Details	[2]	[3]	[4]	[5]	[6]
1 nM	97.2	118	95	95.8	96.2
10 nM	91.7	97.6	102	94.3	97.7
100 nM	94	100	92.7	99.3	90.1
1000 nM	109	89.7	96.3	99.9	96.2
10000 nM	93	95	107	99.2	106

Details	drug sensitivity score	relative viability EC50 [µM]
[9]	–	> 10
[10]	–	> 10
[11]	–	> 10
[12]	0	–
[13]	0	–
[14]	0	–
[15]	0	–
[16]	0	–
[18]	–	> 10
[19]	–	> 10

O=C1NCCN1c1ncc([N+](=O)[O-])s1 [niridazole]
cell viability [%]
Details	[2]	[3]	[4]	[5]	[6]
1 nM	105	99.6	105	97.1	102
10 nM	80.1	107	98.8	98.7	104
100 nM	93.2	96.6	105	99.3	108
1000 nM	87.8	88	106	94.8	115
10000 nM	102	103	97.8	99.8	85.5

Details	drug sensitivity score	relative viability EC50 [µM]
[9]	–	> 10
[10]	–	> 10
[11]	–	> 10
[12]	0	–
[13]	0	–
[14]	0	–
[15]	0	–
[16]	0.1	–
[18]	–	> 10
[19]	–	> 10

CC(=O)OCC(=O)[C@@]1(O)CC[C@H]2[C@@H]3CCC4=CC(=O)CC[C@]4(C)[C@@]3(F)[C@@H](O)C[C@@]21C [FLUDROCORTISONE ACETATE]
cell viability [%]
Details	[2]	[3]	[4]	[5]	[6]
1 nM	102	97.7	104	98.1	97.7
10 nM	102	94.4	95.9	101	99.8
100 nM	99.5	93	104	95.8	96.5
1000 nM	92.8	85.1	87.5	94.7	96.5
10000 nM	101	104	95.3	93.1	97.7

Details	drug sensitivity score	relative viability EC50 [µM]
[9]	–	> 10
[10]	–	> 10
[11]	–	> 10
[12]	0	–
[13]	0	–
[14]	0.6	–
[15]	0	–
[16]	0	–
[18]	–	> 10
[19]	–	> 10

Nc1ccc(C(=O)O)c(O)c1 [aminosalicylate]
cell viability [%]
Details	[2]	[3]	[4]	[5]	[6]
1 nM	95.7	96.5	92.6	92.5	95.5
10 nM	115	101	102	101	98.5
100 nM	105	107	99.7	96.4	104
1000 nM	116	98.9	81.1	104	104
10000 nM	104	99.3	102	93.8	95.3

Details	drug sensitivity score	relative viability EC50 [µM]
[9]	–	> 10
[10]	–	> 10
[11]	–	> 10
[12]	0	–
[13]	0	–
[14]	0	–
[15]	0	–
[16]	0	–
[18]	–	> 10
[19]	–	> 10
